Values of other authors, collected in PubChem BioAssay AID1259409 (Chemical Carcinogenesis Research Information System (CCRIS), 2018).

System: rodent chemically induced tumor inhibition, incidence and multiplicity
Test: CCRIS tumor inhibitor studies

| SMILES | tumour outcome (control, treated, inhibition, significance) (Carcinogen: 2-AMINO-1-METHYL-6-PHENYL-1H-IMIDAZO[4,5-B]PYRID INE [105650-23-5], Dose [Inhibitor]: 0, 400 PPM IN DIET FOR DURATION OF STUDY BEGINNING 1 D PRIOR TO CARCINOGEN TREATMENT (STUDY DURATION: 21 WK), Route [Inhibitor]: ORAL, Species: RAT, Strain/Sex: SPRAGUE-DAWLEY/FEMALE, Target Tissue: Type of Lesion: MAMMARY GLAND: DUCTAL CARCINOMA, Dose [Carcinogen]: 85 MG/KG BW 4X/WK FOR 2 WK) | tumour outcome (control, treated, inhibition, significance) (Carcinogen: 7, 12-DIMETHYLBENZ(A)ANTHRACENE [57-97-6], Dose [Inhibitor]: 5 MG/KG BW TWICE WEEKLY BEGINNING 3 D BEFORE FIRST CARCINOGEN DOSE FOR 13 WK (STUDY DURATION: 13 WK), Route [Inhibitor]: SUBCUTANEOUS, Species: RAT, Strain/Sex: SPRAGUE-DAWLEY/FEMALE, Target Tissue: Type of Lesion: MAMMARY GLAND: TUMOR, Dose [Carcinogen]: 10 MG THREE TIMES BETWEEN POSTNATAL DAYS 45-59) | tumour outcome (control, treated, inhibition, significance) (Carcinogen: AZOXYMETHANE (25843-45-2), Dose [Inhibitor]: 0, 0.04% 1 WK AFTER END OF DEXTRAN SODIUM SULFATE TREATMENT FOR 14 WKS (STUDY DURATION: 17 WKS), Route [Inhibitor]: DIET, Species: MOUSE, Strain/Sex: CD-1/FEMALE (10,10)/(10,10), Target Tissue: Type of Lesion: COLON: ADENOMA, Dose [Carcinogen]: 10 MG/KG ONCE, Promoter: DEXTRAN SODIUM SULFATE (9011-18-1)) | tumour outcome (control, treated, inhibition, significance) (Carcinogen: AZOXYMETHANE (25843-45-2), Dose [Inhibitor]: 0, 0.04% IN DIET 1 WK AFTER END OF DEXTRAN SODIUM SULFATE TREATMENT FOR 14 WKS (STUDY DURATION: 17 WKS), Route [Inhibitor]: DIET, Species: MOUSE, Strain/Sex: CD-1/FEMALE (10,10)/(10,10), Target Tissue: Type of Lesion: COLON: ADENOCARCINOMA, Dose [Carcinogen]: 10 MG/KG ONCE, Promoter: DEXTRAN SODIUM SULFATE (9011-18-1)) | tumour outcome (control, treated, inhibition, significance) (Carcinogen: AZOXYMETHANE, 25843-45-2, Dose [Inhibitor]: 0, 200 PPM IN DIET FOR DURATION OF STUDY BEGINNING 1D PRIOR TO CARCINOGEN TREATMENT (STUDY DURATION: 30 WK), Route [Inhibitor]: ORAL, Species: MOUSE, Strain/Sex: ICR/MALE, Target Tissue: Type of Lesion: COLON: CARCINOMA, Dose [Carcinogen]: 10 MG/KG BW IN SALINE 1/WK FOR 6 WK, Promoter: NONE USED) | tumour outcome (control, treated, inhibition, significance) (Carcinogen: AZOXYMETHANE, 25843-45-2, Dose [Inhibitor]: 0, 400 PPM IN DIET FOR DURATION OF STUDY BEGINNING 1 D PRIOR TO CARCINOGEN TREATMENT (STUDY DURATION: 30 WK), Route [Inhibitor]: ORAL, Species: MOUSE, Strain/Sex: ICR/MALE, Target Tissue: Type of Lesion: COLON: CARCINOMA, Dose [Carcinogen]: 10 MG/KG BW IN SALINE 1/WK FOR 6 WK, Promoter: NONE USED) | tumour outcome (control, treated, inhibition, significance) (Carcinogen: N-BUTYL-N-(4-HYDROXYBUTYL)NITROSAMINE, 3817-11-6, Dose [Inhibitor]: 0, 100 PPM IN DIET FOR 12 WK BEGINNING POST CARCINOGEN TREATMENT (STUDY DURATION: 20 WK), Route [Inhibitor]: ORAL, Species: RAT, Strain/Sex: F344/MALE, Target Tissue: Type of Lesion: URINARY BLADDER: TRANSITIONAL CELL CARCINOMA, Dose [Carcinogen]: 0.05% IN DRINKING WATER FOR 8 WK, Promoter: NONE USED) | tumour outcome (control, treated, inhibition, significance) (Carcinogen: N-BUTYL-N-(4-HYDROXYBUTYL)NITROSAMINE, 3817-11-6, Dose [Inhibitor]: 0, 200 PPM IN DIET FOR 12 WK BEGINNING POST CARCINOGEN TREATMENT (STUDY DURATION: 20 WK), Route [Inhibitor]: ORAL, Species: RAT, Strain/Sex: F344/MALE, Target Tissue: Type of Lesion: URINARY BLADDER: TRANSITIONAL CELL CARCINOMA, Dose [Carcinogen]: 0.05% IN DRINKING WATER FOR 8 WK, Promoter: NONE USED) | tumour outcome (control, treated, inhibition, significance) (Carcinogen: N-BUTYL-N-(4-HYDROXYBUTYL)NITROSAMINE, 3817-11-6, Dose [Inhibitor]: 0, 400 PPM IN DIET FOR 12 WK BEGINNING POST CARCINOGEN TREATMENT (STUDY DURATION: 20 WK), Route [Inhibitor]: ORAL, Species: RAT, Strain/Sex: F344/MALE, Target Tissue: Type of Lesion: URINARY BLADDER: TRANSITIONAL CELL CARCINOMA, Dose [Carcinogen]: 0.05% IN DRINKING WATER FOR 8 WK, Promoter: NONE USED) | tumour outcome (control, treated, inhibition, significance) (Carcinogen: N-METHYL-N-NITROSOUREA [684-93-5], Dose [Inhibitor]: 5 MG/KG BW TWICE WEEKLY BEGINNING 5 D BEFORE FIRST CARCINOGEN DOSE FOR 27 WK (STUDY DURATION: 27 WK), Route [Inhibitor]: SUBCUTANEOUS, Species: RAT, Strain/Sex: SPRAGUE-DAWLEY/FEMALE, Target Tissue: Type of Lesion: MAMMARY GLAND: TUMOR, Dose [Carcinogen]: 50 MG/KG BW TWICE ON POSTNATAL DAYS 51 AND 58) | tumour outcome (control, treated, inhibition, significance) (Carcinogen: CADMIUM CHLORIDE, 10108-64-2, Dose [Inhibitor]: APPROXIMATELY NORMAL CIRCULATING LEVELS OF TESTOSTERONE BEGINNING 2 WK PRIOR TO CARCINOGEN TREATMENT, IMPLANTS REPLACED, Route [Inhibitor]: SUBCUTANEOUS IMPLANT, Species: RAT, Strain/Sex: F344/MALE, Target Tissue: Type of Lesion: HEMATOPOIETIC SYSTEM: LEUKEMIA, Dose [Carcinogen]: 20 UMOL 1/WK FOR 5 WK, Promoter: NONE USED) | tumour outcome (control, treated, inhibition, significance) (Carcinogen: CADMIUM CHLORIDE, 10108-64-2, Dose [Inhibitor]: APPROXIMATELY NORMAL CIRCULATING LEVELS OF TESTOSTERONE BEGINNING 2 WK PRIOR TO CARCINOGEN TREATMENT, IMPLANTS REPLACED, Route [Inhibitor]: SUBCUTANEOUS IMPLANT, Species: RAT, Strain/Sex: F344/MALE, Target Tissue: Type of Lesion: INJECTION SITE: SARCOMA, Dose [Carcinogen]: 20 UMOL 1/WK FOR 5 WK, Promoter: NONE USED) | tumour outcome (control, treated, inhibition, significance) (Carcinogen: CADMIUM CHLORIDE, 10108-64-2, Dose [Inhibitor]: APPROXIMATELY NORMAL CIRCULATING LEVELS OF TESTOSTERONE BEGINNING 2 WK PRIOR TO CARCINOGEN TREATMENT, IMPLANTS REPLACED, Route [Inhibitor]: SUBCUTANEOUS IMPLANT, Species: RAT, Strain/Sex: F344/MALE, Target Tissue: Type of Lesion: TESTES: TUMOR, Dose [Carcinogen]: 20 UMOL 1/WK FOR 5 WK, Promoter: NONE USED) | tumour outcome (control, treated, inhibition, significance) (Carcinogen: N-NITROSOBIS(2-OXOPROPYL)AMINE, 60599-38-4, Dose [Inhibitor]: 0, 40 MG PELLET INSERTED IN THE INTERSCAPULAR REGION AND REPLACED EVERY 6 WK FOR LIFE BEGINNING POST LAST CARCINOGEN DOS, Route [Inhibitor]: SUBCUTANEOUS, Species: RAT, Strain/Sex: MRC/MALE, Target Tissue: Type of Lesion: COLON: TUMOR, Dose [Carcinogen]: 10 MG/KG 1/WK FOR 20 WK, Promoter: NONE USED) | tumour outcome (control, treated, inhibition, significance) (Carcinogen: N-NITROSOBIS(2-OXOPROPYL)AMINE, 60599-38-4, Dose [Inhibitor]: 0, 40 MG PELLET INSERTED IN THE INTERSCAPULAR REGION AND REPLACED EVERY 6 WK FOR LIFE BEGINNING POST LAST CARCINOGEN DOS, Route [Inhibitor]: SUBCUTANEOUS, Species: RAT, Strain/Sex: MRC/MALE, Target Tissue: Type of Lesion: RECTUM: TUMOR, Dose [Carcinogen]: 10 MG/KG 1/WK FOR 20 WK, Promoter: NONE USED) | tumour outcome (control, treated, inhibition, significance) (Carcinogen: N-NITROSOBIS(2-OXOPROPYL)AMINE, 60599-38-4, Dose [Inhibitor]: 0, 40 MG PELLET INSERTED IN THE INTERSCAPULAR REGION AND REPLACED EVERY 6 WK FOR LIFE BEGINNING WITH FIRST CARCINOGEN DO, Route [Inhibitor]: SUBCUTANEOUS, Species: RAT, Strain/Sex: MRC/MALE, Target Tissue: Type of Lesion: COLON: TUMOR, Dose [Carcinogen]: 10 MG/KG 1/WK FOR 20 WK, Promoter: NONE USED) | tumour outcome (control, treated, inhibition, significance) (Carcinogen: N-NITROSOBIS(2-OXOPROPYL)AMINE, 60599-38-4, Dose [Inhibitor]: 0, 40 MG PELLET INSERTED IN THE INTERSCAPULAR REGION AND REPLACED EVERY 6 WK FOR LIFE BEGINNING WITH FIRST CARCINOGEN DO, Route [Inhibitor]: SUBCUTANEOUS, Species: RAT, Strain/Sex: MRC/MALE, Target Tissue: Type of Lesion: RECTUM: TUMOR, Dose [Carcinogen]: 10 MG/KG 1/WK FOR 20 WK, Promoter: NONE USED) | tumour outcome (control, treated, inhibition, significance) (Carcinogen: N-NITROSOBIS(2-OXOPROPYL)AMINE, 60599-38-4, Dose [Inhibitor]: 0, 40 MG PELLET INSERTED IN THE INTERSCAPULAR REGION AND REPLACED EVERY 6 WK FOR LIFE BEGINNING WITH FIRST CARCINOGEN DO, Route [Inhibitor]: SUBCUTANEOUS, Species: RAT, Strain/Sex: MRC/MALE, Target Tissue: Type of Lesion: RECTUM: TUMOR, Dose [Carcinogen]: 20 MG/KG 1/D FOR 3 D, Promoter: NONE USED) |
| --- | --- | --- | --- | --- | --- | --- | --- | --- | --- | --- | --- | --- | --- | --- | --- | --- | --- | --- |
| CS(=O)(=O)Nc1ccc([N+](=O)[O-])cc1Oc1ccccc1 | 30/42 (71%), 19/37 (51%), 28.2%, not significant | 23/24 (95.8%), 24/25 (96.0%), -0.2%, not significant | 10/10 (100%), 6/10 (60%), 40%, p<0.05 | 10/10 (100%), 4/10 (40%), 60%, p<0.01 | 14/28 (50%), 12/37 (32%), 36%, not significant | 14/28 (50%), 10/40 (25%), 50%, p<0.05 | 18/20 (90%), 12/20 (60%), 33%, not significant | 18/20 (90%), 8/16 (50%), 44%, p<0.05 | 18/20 (90%), 5/19 (26%), 71%, p<0.0002 | 17/18 (94%), 10/18 (55.6%), 41%, p<0.05 |  |  |  |  |  |  |  |  |
| CCC(=O)O[C@H]1CC[C@H]2[C@@H]3CCC4=CC(=O)CC[C@]4(C)[C@H]3CC[C@]12C |  |  |  |  |  |  |  |  |  |  | 9/40 (23%), 10/37 (27%), -17%, not significant | 28/40 (70%), 22/37 (59%), 16%, not significant | 34/40 (85%), 0/37 (0%), 100%, p<0.05 | 2/26 (8%), 1/24 (4%), 50%, not calculated | 9/26 (35%), 14/24 (58%), -66%, not calculated | 2/26 (8%), 0/29 (0%), 100%, not calculated | 9/26 (35%), 0/29 (0%), 100%, p<0.005 | 6/13 (46%), 0/25 (0%), 100%, p<0.005 |
